Results on 23 compounds are retold here after patent US8586591B2, “Aminopyrazine derivative and medicine” (Nippon Shinyaku Co., Ltd., priority 2009, dated 2013).

Structures can show the parent of a compound that is named as a salt.

The target in one test is T1, JAK2 tyrosine kinase (Homo sapiens, UniProt O60674).
T1 construct: purchased Carnabioscience Co
The experiment in a line: Test 1: inhibitory activity to JAK2 tyrosine kinase (ELISA). In kind it is biochemical. As to conditions: 25 μM ATP in substrate solution, 30° C. for 1 hour, n=2. In a few lines:
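This is an ELISA read at A450 (HRP anti-phosphotyrosine antibody, TMB) of biotin-peptide phosphorylation captured on streptavidin. Enzyme solution was 0.75 nM JAK2, and the substrate solution was 625 nM peptide with 25 μM ATP in Tris pH 7.5 buffer. The reaction ran 1 h at 30 °C with compounds in duplicate, and IC50 was fitted non-linearly.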

The next test has as its target T2, JAK3 tyrosine kinase (Homo sapiens, UniProt P52333).
T2 construct: purchased Carnabioscience Co
T2 sequence (P52333 1-1124): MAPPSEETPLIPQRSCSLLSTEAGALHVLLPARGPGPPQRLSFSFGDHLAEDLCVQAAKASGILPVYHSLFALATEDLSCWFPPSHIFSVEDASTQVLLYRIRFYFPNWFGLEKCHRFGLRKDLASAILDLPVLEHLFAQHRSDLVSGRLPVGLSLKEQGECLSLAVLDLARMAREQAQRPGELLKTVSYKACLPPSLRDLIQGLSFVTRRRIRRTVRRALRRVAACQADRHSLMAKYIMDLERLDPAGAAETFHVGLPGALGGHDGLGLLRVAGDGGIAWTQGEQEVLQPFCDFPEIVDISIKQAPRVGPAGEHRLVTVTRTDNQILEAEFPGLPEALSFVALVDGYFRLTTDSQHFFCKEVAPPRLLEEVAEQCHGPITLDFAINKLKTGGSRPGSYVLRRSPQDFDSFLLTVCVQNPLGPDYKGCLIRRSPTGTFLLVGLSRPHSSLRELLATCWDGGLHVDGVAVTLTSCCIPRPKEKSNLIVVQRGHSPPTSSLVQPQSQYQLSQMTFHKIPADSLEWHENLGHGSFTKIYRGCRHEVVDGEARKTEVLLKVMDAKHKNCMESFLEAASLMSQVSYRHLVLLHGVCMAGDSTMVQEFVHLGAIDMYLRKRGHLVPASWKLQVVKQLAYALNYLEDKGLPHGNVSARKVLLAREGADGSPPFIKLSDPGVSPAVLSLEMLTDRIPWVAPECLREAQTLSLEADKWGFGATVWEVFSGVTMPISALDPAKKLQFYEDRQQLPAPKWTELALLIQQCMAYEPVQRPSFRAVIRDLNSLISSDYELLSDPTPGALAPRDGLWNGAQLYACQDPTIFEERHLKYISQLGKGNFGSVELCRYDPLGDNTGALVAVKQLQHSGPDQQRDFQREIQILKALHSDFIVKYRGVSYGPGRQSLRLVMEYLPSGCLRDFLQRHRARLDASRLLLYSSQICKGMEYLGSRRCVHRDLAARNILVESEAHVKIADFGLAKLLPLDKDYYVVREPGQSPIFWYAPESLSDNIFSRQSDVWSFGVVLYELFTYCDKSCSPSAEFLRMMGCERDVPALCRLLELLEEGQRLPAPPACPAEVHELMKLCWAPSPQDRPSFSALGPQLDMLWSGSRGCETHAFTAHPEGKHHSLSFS
The experiment in a line: Test 1: inhibitory activity to JAK3 tyrosine kinase (ELISA). The format is biochemical. As to conditions: 25 μM ATP in substrate solution, 30° C. for 1 hour, n=2. The essentials: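 ELISA of JAK3 kinase activity with absorbance read at 450 nm. Compounds were tested from DMSO dilution series at 100-fold the measurement concentrations (1000–0.01 μM), diluted up to 20 times in assay buffer, against a DMSO negative control. IC50 was estimated by non-linear regression of absorbance.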
(In general: ELISA stands for enzyme-linked immunosorbent assay.)

T1 sequence (O60674 whole entry): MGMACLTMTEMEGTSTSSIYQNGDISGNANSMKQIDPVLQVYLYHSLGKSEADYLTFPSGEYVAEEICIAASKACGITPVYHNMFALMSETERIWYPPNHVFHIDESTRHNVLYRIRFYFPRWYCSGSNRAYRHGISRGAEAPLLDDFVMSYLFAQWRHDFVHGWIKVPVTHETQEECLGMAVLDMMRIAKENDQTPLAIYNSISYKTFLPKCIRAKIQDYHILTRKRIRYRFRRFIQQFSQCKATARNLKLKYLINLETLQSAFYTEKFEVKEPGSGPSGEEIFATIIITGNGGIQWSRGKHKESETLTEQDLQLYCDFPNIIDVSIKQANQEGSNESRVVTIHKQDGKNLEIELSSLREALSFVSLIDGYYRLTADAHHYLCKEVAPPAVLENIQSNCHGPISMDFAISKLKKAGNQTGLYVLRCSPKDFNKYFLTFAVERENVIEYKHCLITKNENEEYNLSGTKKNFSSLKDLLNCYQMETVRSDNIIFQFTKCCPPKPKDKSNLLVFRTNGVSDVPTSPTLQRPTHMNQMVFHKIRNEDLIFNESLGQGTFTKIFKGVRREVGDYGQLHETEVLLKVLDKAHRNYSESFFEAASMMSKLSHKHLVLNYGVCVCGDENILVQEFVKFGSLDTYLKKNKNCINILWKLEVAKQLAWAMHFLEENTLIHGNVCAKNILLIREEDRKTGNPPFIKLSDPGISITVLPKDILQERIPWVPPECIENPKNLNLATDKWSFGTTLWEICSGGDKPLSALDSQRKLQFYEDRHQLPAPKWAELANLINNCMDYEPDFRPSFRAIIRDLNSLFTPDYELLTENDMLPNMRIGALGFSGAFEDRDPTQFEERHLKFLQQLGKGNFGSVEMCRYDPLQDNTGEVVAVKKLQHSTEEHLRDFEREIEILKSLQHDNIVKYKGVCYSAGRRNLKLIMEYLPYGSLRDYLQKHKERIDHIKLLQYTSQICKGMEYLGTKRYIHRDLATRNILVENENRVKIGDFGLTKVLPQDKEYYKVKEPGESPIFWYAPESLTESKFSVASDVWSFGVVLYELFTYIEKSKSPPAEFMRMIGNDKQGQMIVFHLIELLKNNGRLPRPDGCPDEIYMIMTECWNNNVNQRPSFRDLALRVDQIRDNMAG

Regarding `CCNC(=O)C1CN(c2cc(Nc3cnccn3)nc(N[C@@H](C)c3ccc(F)cc3)n2)C1` [Example 180, (S)—N-Ethyl-1-{2-[1-(4-fluorophenyl)ethylamino]-6-(pyrazin-2-ylamino)pyrimidin-4-yl}azetidine-3-carboxamide], the half-inhibitory concentration (IC50) at JAK2 tyrosine kinase came out at 2.5 nM; against JAK3 tyrosine kinase, 52 nM.
In the same order, the values of `C[C@H](Nc1nc(Nc2cnccn2)cc(N2CC(C(=O)NCC3CC3)C2)n1)c1ccc(F)cc1` [Example 198, (S)—N-(Cyclopropylmethyl)-1-{2-[1-(4-fluorophenyl)ethylamino]-6-(pyrazin-2-ylamino)pyrimidin-4-yl}azetidine-3-carboxamide] are 1.6 nM and 60 nM.
For the compound `C[C@H](Nc1nc(Nc2cnccn2)cc(N2CCN(S(=O)(=O)c3ccccc3)CC2)n1)c1ccc(F)cc1` [Example 114, (S)—N^2-[1-(4-Fluorophenyl)ethyl]-6-[4-(phenylsulfonyl)piperazin-1-yl]-N^4-(pyrazin-2-yl)pyrimidine-2,4-diamine hydrochloride], the IC50 was found to be 4.8 nM against JAK2 tyrosine kinase and 66 nM against JAK3 tyrosine kinase.
`C[C@H](Nc1nc(Nc2cnccn2)cc(-c2cnco2)n1)c1ccc(F)cc1` [Example 22, (S)—N^2-[1-(4-Fluorophenyl)ethyl]-6-(oxazol-5-yl)-N^4-(pyrazin-2-yl)pyrimidine-2,4-diamine hydrochloride]: the 50% inhibitory concentration (IC50) amounted to 1.6 nM against JAK2 tyrosine kinase and 88 nM against JAK3 tyrosine kinase.
For `CCN(CC)C(=O)C1CN(c2cc(Nc3cnccn3)nc(N[C@@H](C)c3ccc(F)cc3)n2)C1` [Example 181, (S)—N,N-Diethyl-1-{2-[1-(4-fluorophenyl)ethylamino]-6-(pyrazin-2-ylamino)pyrimidin-4-yl}azetidine-3-carboxamide], in that order: 2.2 nM and 56 nM.
As to `C[C@H](Nc1nc(Nc2cnccn2)cc(N2CC(C(=O)NCCO)C2)n1)c1ccc(F)cc1` [Example 199, (S)-1-{2-[1-(4-Fluorophenyl)ethylamino]-6-(pyrazin-2-ylamino)pyrimidin-4-yl}-N-(2-hydroxyethyl)azetidine-3-carboxamide], the half-inhibitory concentration (IC50) on JAK2 tyrosine kinase turned out to be 1.6 nM; against JAK3 tyrosine kinase, 64 nM.
In the same order, the values of `C[C@H](Nc1nc(Nc2cnccn2)cc(N2CC(O)(C(F)(F)F)C2)n1)c1ccc(F)cc1` [Example 192, (S)-1-{2-[1-(4-Fluorophenyl)ethylamino]-6-(pyrazin-2-ylamino)pyrimidin-4-yl}-3-(trifluoromethyl)azetidin-3-ol hydrochloride] are 1.9 nM and 120 nM.
For `CCC(=O)Nc1cc(Nc2cnccn2)nc(N[C@@H](C)c2ccc(F)cc2)c1` [Example 216, (S)—N-{2-[1-(4-Fluorophenyl)ethylamino]-6-(pyrazin-2-ylamino)pyridin-4-yl}propionamide], in that order: 1.4 nM and 49 nM.
Regarding `CCOCCNC(=O)c1cc(Nc2cnccn2)nc(N[C@@H](C)c2ccc(F)cc2)c1` [Example 173, (S)—N-(2-Ethoxyethyl)-2-[1-(4-fluorophenyl)ethylamino]-6-(pyrazin-2-ylamino)isonicotinamide], the IC50 against JAK2 tyrosine kinase was determined as 1.5 nM; on JAK3 tyrosine kinase, 200 nM.
In the same order, the values of `C[C@H](Nc1nc(Nc2cnccn2)cc(-c2ccncc2)n1)c1ccc(F)cc1` [Example 15, (S)—N^2-[1-(4-Fluorophenyl)ethyl]-N^4-(pyrazin-2-yl)-6-(pyridin-4-yl)pyrimidine-2,4-diamine] are 1.3 nM and 72 nM.
In the same order, the values of `Cn1cc(-c2cc(Nc3cnccn3)nc(NC(CO)c3ccc(F)cc3)c2)cn1` (stereo not shown) [Example 179, 2-(4-Fluorophenyl)-2-[4-(1-methyl-1H-pyrazol-4-yl)-6-(pyrazin-2-ylamino)pyridin-2-ylamino]ethanol] are 2.6 nM and 330 nM.
In the same order, the values of `CC(C)C[C@H](CO)Nc1cc(Nc2cnccn2)nc(N[C@@H](C)c2ccc(F)cc2)n1` [Example 88, (R)-2-{2-[(S)-1-(4-Fluorophenyl)ethylamino]-6-(pyrazin-2-ylamino)pyrimidin-4-ylamino}-4-methylpentan-1-ol] are 13 nM and 200 nM.
For `C[C@H](Nc1cc(C2CCN(S(C)(=O)=O)CC2)cc(Nc2cnccn2)n1)c1ccc(F)cc1` [Example 215, (S)—N^2-[1-(4-Fluorophenyl)ethyl]-4-[1-(methanesulfonyl)piperidin-4-yl]-N^6-(pyrazin-2-yl)pyridine-2,6-diamine], the IC50 at JAK2 tyrosine kinase was determined as 2.3 nM; at JAK3 tyrosine kinase, 210 nM.
In the same order, the values of `CC(=O)N[C@H]1CCN(c2cc(Nc3cnccn3)nc(N[C@@H](C)c3ccc(F)cc3)c2)C1` [Example 38, N-{(S)-1-[2-{[(S)-1-(4-Fluorophenyl)ethyl]amino}-6-(pyrazin-2-ylamino)pyridin-4-yl]pyrrolidin-3-yl}acetamide hydrochloride] are 2.3 nM and 85 nM.
For `C[C@H](Nc1nc(Nc2cnccn2)cc(N2CCC(N)C2)n1)c1ccc(F)cc1` (stereo partly drawn) [Example 59, 6-(3-Aminopyrrolidin-1-yl)-N^2-[(S)-1-(4-fluorophenyl)ethyl]-N^4-(pyrazin-2-yl)pyrimidine-2,4-diamine], in that order: 1.7 nM and 60 nM.
In the same order, the values of `C[C@H](Nc1nc(Nc2cnccn2)cc(N[C@@H](CO)C(N)=O)n1)c1ccc(F)cc1` [Example 109, (S)-2-{2-[(S)-1-(4-Fluorophenyl)ethylamino]-6-(pyrazin-2-ylamino)pyrimidin-4-ylamino}-3-hydroxypropanamide] are 2.4 nM and 130 nM.
In the case of `C[C@H](Nc1cc(-c2ccc(C(N)=O)cc2)cc(Nc2cnccn2)n1)c1ccc(F)cc1` [Example 115, (S)-4-{2-[1-(4-Fluorophenyl)ethylamino]-6-(pyrazin-2-ylamino)pyridin-4-yl}benzamide dihydrochloride], the IC50 turned out to be 2.3 nM against JAK2 tyrosine kinase and 210 nM on JAK3 tyrosine kinase.
In the case of `C[C@H](Nc1nc(Nc2cnccn2)cc(-c2ccc3c(c2)OCO3)n1)c1ccc(F)cc1` [Example 92, (S)-6-(Benzo[d]1,3-dioxol-5-yl)-N^2-[1-(4-fluorophenyl)ethyl]-N^4-(pyrazin-2-yl)pyrimidine-2,4-diamine hydrochloride], the IC50 amounted to 9.8 nM at JAK2 tyrosine kinase and 460 nM at JAK3 tyrosine kinase.
For `C[C@H](Nc1nc(Nc2cnccn2)cc(N2CC(=O)NC(=O)C2)n1)c1ccc(F)cc1` [Example 17, (S)-4-{2-[1-(4-Fluorophenyl)ethylamino]-6-(pyrazin-2-ylamino)pyrimidin-4-yl}piperazine-2,6-dione], in that order: 4.4 nM and 340 nM.
In the same order, the values of `C[C@H](Nc1nc(Nc2cnccn2)cc(-c2cccc(C(N)=O)c2)n1)c1ccc(F)cc1` [Example 91] are 1.4 nM and 97 nM.
In the same order, the values of `C[C@H](Nc1cc(C(=O)NCC(F)(F)F)cc(Nc2cnccn2)n1)c1ccc(F)cc1` [Example 171, (S)-2-[1-(4-Fluorophenyl)ethylamino]-6-(pyrazin-2-ylamino)-N-(2,2,2-trifluoroethyl) isonicotinamide] are 1.9 nM and 570 nM.
For `C[C@H](Nc1nc(Nc2cnccn2)ccc1C(N)=O)c1ccc(F)cc1` [Example 187, (S)-2-[1-(4-Fluorophenyl)ethylamino]-6-(pyrazin-2-ylamino) nicotinamide], the concentration for half-maximal inhibition (IC50) worked out at 2.4 nM against JAK2 tyrosine kinase and 400 nM on JAK3 tyrosine kinase.
For `C[C@H](Nc1nc(Nc2cnccn2)cc(N2CCCC2)n1)c1ccc(F)cc1` [Example 19, (S)—N^2-[1-(4-Fluorophenyl)ethyl]-N^4-(pyrazin-2-yl)-6-(pyrrolidin-1-yl)pyrimidine-2,4-diamine], in that order: 2.6 nM and 59 nM.

By IC50 is commonly meant the point on the concentration scale where inhibition reaches its midpoint. Low readings indicate inhibition by little substance, high ones a need for much substance.
